In publication PMC7698016 (Metabolites, 2020):

Molecular target: T1, AKR1C3 (aldo-keto reductase 1C3) (Homo sapiens, UniProt P42330)
T1 construct: human recombinant enzyme expressed in E. coli (Novus NBC1-21051)
Test: Km by real-time NADPH fluorescence ([…]); GC-QToF gave Km […]
Assay type: biochemical

T1 sequence (P42330 whole entry): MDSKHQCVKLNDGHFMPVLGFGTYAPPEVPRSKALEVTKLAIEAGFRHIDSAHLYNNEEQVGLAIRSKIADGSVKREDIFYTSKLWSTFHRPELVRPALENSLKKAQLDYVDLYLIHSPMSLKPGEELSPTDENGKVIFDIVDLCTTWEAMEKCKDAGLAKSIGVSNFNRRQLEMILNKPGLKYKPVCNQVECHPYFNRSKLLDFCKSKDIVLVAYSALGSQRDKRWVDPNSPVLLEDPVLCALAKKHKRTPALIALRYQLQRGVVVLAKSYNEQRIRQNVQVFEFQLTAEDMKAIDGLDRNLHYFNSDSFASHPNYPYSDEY

**Q.** With `C[C@]12CC[C@@H](O)C[C@H]1CC[C@@H]1[C@@H]2CC[C@]2(C)C(=O)CC[C@@H]12` [D, 3α-hydroxy-5β-androstan-17-one] as the compound, how does the Km read?
**A.** Its Km is 9.7 µM.
